Test results from ChEMBL document CHEMBL5550169, “A consensus reverse docking approach for identification of a competitive inhibitor of acetyltransferase enhanced intracellular survival protein from Mycobacterium tuberculosis” (Bioorg Med Chem, 2024).
pIC50: −log10 of the molar value. Converted amounts (≈) assume the structure as drawn.

Key:
[1] = tested on: Mycobacterium tuberculosis; assay: Antibacterial activity against Mycobacterium tuberculosis H37Rv assessed as reduction in pellet formation measured after 7 to 14 days by alamar blue assay; assay type: functional; details: time 7-14 day
[2] = tested on: Mycobacterium tuberculosis; assay: Antibacterial activity against Mycobacterium tuberculosis IAR2 assessed as reduction in pellet formation measured after 7 to 14 days by alamar blue assay; assay type: functional; details: time 7-14 day
[3] = Cmax in female BALB/c mouse plasma at 100 mg/kg, po administered as single dose via oral gavage and measured upto 24 hrs by LC-MS analysis; assay type: ADME, organism-based
[4] = Tmax in female BALB/c mouse plasma at 100 mg/kg, po administered as single dose via oral gavage and measured upto 24 hrs by LC-MS analysis; assay type: ADME, organism-based
[5] = Cmax in female BALB/c mouse lungs at 100 mg/kg, po administered as single dose via oral gavage and measured upto 24 hrs by LC-MS analysis; assay type: ADME, organism-based; details: lung
[6] = Tmax in female BALB/c mouse lungs at 100 mg/kg, po administered as single dose via oral gavage and measured upto 24 hrs by LC-MS analysis; assay type: ADME, organism-based; details: lung
[7] = tested on: Mycobacterium tuberculosis; assay: Antibacterial activity against Mycobacterium tuberculosis H37Ra measured after 7 days by resazurin reduction microplate assay; assay type: functional; details: 168 h, time 7 day
N-acetyltransferase Eis = target: T1, N-acetyltransferase Eis (Mycobacterium tuberculosis (strain ATCC 25618 / H37Rv), UniProt P9WFK7); assay: Inhibition of Mycobacterium tuberculosis H37Rv Eis protein using kanamycin as substrate preincubated for 10 mins followed by AcCoA addition and measured every 30 secs for 20 mins
T1 sequence (P9WFK7 whole entry): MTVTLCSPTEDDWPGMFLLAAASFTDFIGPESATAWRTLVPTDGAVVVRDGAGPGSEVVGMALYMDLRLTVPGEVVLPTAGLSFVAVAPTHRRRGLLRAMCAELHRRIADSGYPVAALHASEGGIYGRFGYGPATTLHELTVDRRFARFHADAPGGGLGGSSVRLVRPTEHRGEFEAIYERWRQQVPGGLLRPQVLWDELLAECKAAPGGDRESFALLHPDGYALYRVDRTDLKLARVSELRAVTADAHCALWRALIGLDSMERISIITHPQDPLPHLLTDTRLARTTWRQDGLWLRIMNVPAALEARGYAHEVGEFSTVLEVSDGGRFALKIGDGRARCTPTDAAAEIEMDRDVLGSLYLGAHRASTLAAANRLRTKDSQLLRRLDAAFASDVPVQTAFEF

Row | SMILES | MIC [7] [µM] | other results
1 | Cc1cc(C)c2c(C(=O)NC3CCCCCCC3)c[nH]c2c1 | – | MIC [1]: 4 ng/mL (≈ 0.0134 µM); MIC [2]: ≥ 0.25 µg/mL; Cmax [3]: 490 ng/mL; Tmax [4]: 2 h; Cmax [5]: 2470 ng/mL; Tmax [6]: 4 h
2 | N#C/C(=C\c1c[nH]c2ccccc12)C(=O)NCc1ccccc1 | > 200 | –
3 | CC(C)OC(=O)/C(C#N)=C/c1c[nH]c2ccccc12 | 100 (≈ 25.4 µg/mL) | –
4 | C=CCn1c(SCC(=O)c2ccccc2)nc2ccccc2c1=O | 200 (≈ 67.3 µg/mL) | –
5 | Cc1ccc(C(=O)CSc2nc3sc4c(c3c(=O)n2Cc2ccccc2)CCCC4)cc1 | > 200 | –
6 | C=CCn1c(SCC(=O)c2ccccc2)nc2ccccc2c1=N | 200 (≈ 67.1 µg/mL) | –
7 | N#C/C(=C\c1c[nH]c2ccccc12)C(=O)N1CCSCC1 | > 200 | –
8 | Cc1ccc2[nH]cc(/C=C(\C#N)C(=O)NCCCc3ccccc3)c2c1 | > 200 | –
9 | Cc1ccc(C(=O)CSc2nc3sc4c(c3c(=O)n2-c2ccccc2)CCCC4)cc1 | > 200 | –
10 | N=c1c2ccccc2nc(SCC(=O)c2ccc(Cl)cc2)n1-c1ccccc1 | > 200 | –
11 | N#C/C(=C\c1c[nH]c2ccccc12)C(=O)N1CCCC1 | > 200 | –
12 | O=C(CSc1nc2sc3c(c2c(=O)n1-c1ccccc1)CCCC3)c1ccc(Cl)cc1 | > 200 | –
13 | COC(=O)/C(C#N)=C/c1c[nH]c2ccccc12 | > 200 | –
14 | COc1ccc(C(=O)CSc2nc3sc4c(c3c(=O)n2-c2ccccc2)CCCC4)cc1 | > 200 | –
15 | C=CCn1c(SCC(=O)c2ccc(Cl)c(Cl)c2)nc2sc3c(c2c1=O)CCCC3 | > 200 | –
16 | C=CCn1c(SCC(=O)c2ccc(Cl)cc2)nc2sc3c(c2c1=O)CCCC3 | > 200 | –
17 | C=CCn1c(SCC(=O)c2ccccc2)nc2sc3c(c2c1=O)CCCC3 | > 200 | –
18 | C=CCn1c(SCC(=O)c2ccc(Cl)cc2)nc2ccccc2c1=N | > 200 | –
19 | N#C/C(=C\c1c[nH]c2ccccc12)C(=O)NCCc1ccccc1 | > 200 | –
20 | Cc1cc(C)c2c(C(=O)NC3CCCCC3)c[nH]c2c1 | – | MIC [1]: 4 ng/mL (≈ 0.0148 µM); MIC [2]: ≥ 0.25 µg/mL
21 | CN1CCCC(CSc2nc(N)c3c4c(sc3n2)CCCC4)C1 (stereo not drawn) | – | pIC50 (N-acetyltransferase Eis): 6.82
22 | C=CCn1c(SCC(=O)c2ccc(C)cc2)nc2sc3c(c2c1=O)CCCC3 | > 200 | –
